From patent publication US20240293394A1, “METHODS FOR TREATING ANTIPSYCHOTIC-INDUCED WEIGHT GAIN” (priority 2010, published 2024)
Read-outs that look alike come from different tables or passages of the source.

Key:
[1] = Olanzapine-related weight gain in female rats; assay type: in vivo
Source text: The rats were assigned to treatment groups using a random block design based on initial body weight.

[2] = Olanzapine-related changes (body weight, adipose tissue, serum chemistry) in female cynomolgus monkeys; assay type: in vivo
Method: Clinical observations and weight gain were assessed over a 28-day treatment period. […] Beginning two weeks prior to the study, monkeys were given ad libitum access to a highly palatable, high caloric diet. On the day prior to the start of treatment, monkeys were weighed and assigned to groups using a randomized block design based on body weight (BW); average BW across the 3 groups was 3.1+0.08 kg on the day of randomization. Also, baseline whole body CT scans were taken on the day prior to initiation of treatments. […] A second CT scan was conducted on day 29.

[3] = tested on: ghrelin; details: known in literature; cited from earlier work
[4] = patients; Taylor et al., Acta Psychiatr Scand. 2001; cited from earlier work
[5] = tested on: ghrelin; test: Circulating ghrelin levels in conscious, unrestrained rats; assay type: in vivo; details: 10 mg/kg PO, two hours post administration
Method: To determine whether Compound1 and naltrexone have any effect on circulating levels of ghrelin, conscious, unrestrained rats (low stress model) were administered Compound 1 and nalrextone (10 mg/kg, PO). Blood samples were collected and analyzed by bioanalytical for circulating levels of ghrelin at 0, 15, 30, 60, and 120 minutes most administration.

[6] = olanzapine only, compared to the vehicle group
[7] = co-administration of Compound 1 0.4 mg/kg IM with olanzapine, serum, Day 28
[8] = olanzapine with Compound 1 0.4 mg/kg IM once daily, 28 days

Compound: Cc1cc2c(s1)Nc1ccccc1N=C2N1CCN(C)CC1 [olanzapine, 2-methyl-4-(4-methyl-1-piperazinyl)-10H-thieno[2,3-b][1,5]benzodiazepine]
- weight gain (body weight) ([1]; olanzapine alone 1 mg/kg PO twice daily, 10 consecutive days, vs vehicle control): greater increases in weight gain
- adipose tissue gain (CT scan) [2, 6]: gained relatively more adipose tissue compared to the vehicle group
- location of adipose tissue deposition (CT scan) [2, 6]: more abdominal fat accretion
- circulating ghrelin levels [3]: increases circulating ghrelin levels

Compound: O=C1CCc2ccc(OCCCCN3CCN(c4cccc(Cl)c4Cl)CC3)cc2N1 [aripiprazole, 7-[4-[4-(2,3-dichlorophenyl)piperazin-1-yl]butoxy]-3,4-dihydro-1H-quinolin-2-one]
- weight gain associated with atypical antipsychotic [4]: less

Compound: O=C1Cc2cc(CCN3CCN(c4nsc5ccccc45)CC3)c(Cl)cc2N1 [ziprasidone, 5-[2-[4-(1,2-benzisothiazol-3-yl)-1-piperazinyl]ethyl]-6-chloro-1,3-dihydro-2H-indol-2-one]
- weight gain associated with atypical antipsychotic [4]: less

Compound: NC(=O)c1ccc2c(c1O)[C@]13CCN(CC4CC4)[C@H](C2)[C@]1(O)CCC(=O)C3 [Compound 1]
- effect on olanzapine-induced elevation in LDL concentrations [2, 7]: prevented
- effect on olanzapine-induced elevation in TGs [2, 7]: prevented
- effect on OLZ-induced changes (weight, adipose tissue accretion, TGs and LDLs) ([2]; co-administration of Compound 1 with olanzapine, 28 days): mitigated
- average body weight gain [2, 8]: 0.08 kg
- average body weight gain, % of Day 0 BW [2, 8]: 2.6%

Compound: O=C1CC[C@@]2(O)[C@H]3Cc4ccc(O)c5c4[C@@]2(CCN3CC2CC2)[C@H]1O5 [naltrexone]
- effect on olanzapine-induced weight gain ([1]; 2 mg/kg SC concurrent with afternoon olanzapine (1 mg/kg PO twice daily), 10 days): did not affect olanzapine-induced weight gain
- circulating ghrelin levels [5]: significantly greater circulating ghrelin levels than Compound 1

Compound: OCCOCCN1CCN(C2=Nc3ccccc3Sc3ccccc32)CC1 [quetiapine, 2-(2-(4-dibenzo[b,f][1,4]thiazepine-11-yl-1-piperazinyl)ethoxy)ethanol]
- weight gain associated with atypical antipsychotic [4]: greatest
